Laboratory results as given in US9005670B2, “Use of histone acetyltransferase inhibitors as novel anti-cancer therapies” (The Johns Hopkins University, priority 2010, dated 2015).
pIC50: −log10 of the molar value.

Columns and labels:
[1] = molecular target: AANAT (arylalkylamine N-acetyltransferase) (Ovis aries, UniProt Q29495); test: AANAT coupled spectrophotometric assay; format: biochemical; conditions: 10 μM compound; read-out: Percent inhibition of acetyltransferase, AANAT
[2] = molecular target: T1, yeast GCN5 (Saccharomyces cerevisiae, UniProt Q03330); test: GCN5 direct radioactive HAT assay; format: biochemical; conditions: 10 μM compound; read-out: Percent inhibition of acetyltransferase, GCN5
T1 construct: made in house
Procedure: (§1) PCAF reactions were performed in 100 mM HEPES, pH 7.9, and contained 200 μM TPP, 5 mM MgCl2, 1 mM DTT, 50 mM NaCl, 0.05 mg/mL BSA, 200 μM NAD, 2.4 mM α-KG, 30 μM acetyl-CoA, 0.037 units α-KGDH, 3.3% DMSO, and 10 μM inhibitor. Reactions took place at 30° C. Reactions were initiated by addition of 10 nM PCAF and were followed at 340 nm over the linear portion of the curve below 10% turnover. AANAT reactions were performed in 100 mM NH4 OAc, pH 6.8, and contained 200 μM TPP, 5 mM MgCl2, 1 mM DTT, 50 mM NaCl, 0.05 mg/mL BSA, 200 μM NAD, 2.4 mM α-KG, 200 μM AcCoA, 0.1 units α-KGDH, 3.3% DMSO, and 10 μM inhibitor. Reactions took place at 25° C. Reactions were initiated with addition of 65 nM AANAT, and followed at 340 nm, as above. Percent inhibition values were compared to those with p300, which were repeated using the protocol given above. […]
(§2) HAT assays with yeast GCN5, SAS complex, MOZ, and Rtt109/Vps75 complex used the direct radioactive assay described above. […] The amount of enzyme used in each assay was estimated by comparing Coomassie Blue staining of samples with bovine serum albumin standards, analyzed by SDS-PAGE. […] The rate of ^14C-incorporation into histone H3 was quantified by autoradiography. […]

[3] = molecular target: T2, MOZ histone acetyltransferase (Homo sapiens, UniProt Q92794); test: MOZ direct radioactive HAT assay; format: biochemical; conditions: 10 μM compound; read-out: Percent inhibition of acetyltransferase, Moz
T2 construct: made in house
Procedure: as §1, §2

[4] = molecular target: T3, Rtt109/Vps75 complex (Saccharomyces cerevisiae, UniProt Q07794); test: Rtt109 direct radioactive HAT assay; format: biochemical; conditions: 10 μM compound; read-out: Percent inhibition of acetyltransferase, Rtt109
T3 construct: made in house
Procedure: as §1, §2

[5] = reaction with beta-mercaptoethanol (absorbance spectrum); format: physicochemical; conditions: 10 mM beta-mercaptoethanol, up to one hour
[6] = test system: LN382 glioblastoma cells; test: AlamarBlue growth inhibition, LN382; format: cell-based; conditions: LN382, 72 hours
Procedure: Dose response curves were generated using the AlamarBlue® assay (Invitrogen, Carlsbad, Calif.).
When inhibition was assessed using the AlamarBlue® assay (Invitrogen, Carlsbad, Calif.), cells were initially seeded at 500 cells per well in a 96-well plate. AlamarBlue® is a non-toxic reagent that measures cellular metabolic activity. Its main ingredient is resazurin, a non-fluorescent indicator dye that is reduced to bright red-fluorescent resorufin in metabolically active cells. AlamarBlue® was added to growth medium at 1/10 of the total volume (e.g., 20 μl in 200 μl total volume). […] Fluorescence reading was taken from the same plate every day for 5 days to ensure that the saturation point was not reached. Fluorescence intensity is proportional to the number of live cells in the plate.

[7] = test system: NCI-60 panel of tumor cell lines; test: NCI-60 DTP human tumor cell line screen; format: cell-based; conditions: 48 hours
Procedure: The in vitro cancer screen was performed at the National Cancer Institute as described in detail at http://dtp.nci.nih.gov/branches/btb/ivelsp.html.
Briefly, cells were plated in 96 well plates at a concentration of 5,000-40,000 cells/well. […] Using the absorbance measurements [time zero, (Tz), control growth, (C), and test growth in the presence of drug at the five concentration levels (Ti)], the percentage growth was calculated at each of the drug concentrations levels. Percentage growth inhibition was calculated as: [(Ti−Tz)/(C−Tz)]×100 for concentrations for which Ti≧Tz [(Ti−Tz)/Tz]×100 for concentrations for which Ti<Tz where Tz is time zero, C is control growth, and Ti is test growth in the presence of drug at the five concentration levels.

T3 sequence (Q07794 whole entry): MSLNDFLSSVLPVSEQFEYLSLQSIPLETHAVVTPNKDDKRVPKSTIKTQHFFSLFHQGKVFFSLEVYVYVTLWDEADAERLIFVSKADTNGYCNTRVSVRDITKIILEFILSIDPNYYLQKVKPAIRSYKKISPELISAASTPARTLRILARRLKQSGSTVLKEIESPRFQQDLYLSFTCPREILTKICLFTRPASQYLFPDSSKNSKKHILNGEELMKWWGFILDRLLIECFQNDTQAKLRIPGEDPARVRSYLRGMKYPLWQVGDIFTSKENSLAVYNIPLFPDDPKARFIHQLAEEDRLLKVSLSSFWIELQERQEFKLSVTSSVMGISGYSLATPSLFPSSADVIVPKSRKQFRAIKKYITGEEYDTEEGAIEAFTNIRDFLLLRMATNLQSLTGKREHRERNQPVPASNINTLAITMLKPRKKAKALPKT
T3 sequence (P53853 whole entry partner): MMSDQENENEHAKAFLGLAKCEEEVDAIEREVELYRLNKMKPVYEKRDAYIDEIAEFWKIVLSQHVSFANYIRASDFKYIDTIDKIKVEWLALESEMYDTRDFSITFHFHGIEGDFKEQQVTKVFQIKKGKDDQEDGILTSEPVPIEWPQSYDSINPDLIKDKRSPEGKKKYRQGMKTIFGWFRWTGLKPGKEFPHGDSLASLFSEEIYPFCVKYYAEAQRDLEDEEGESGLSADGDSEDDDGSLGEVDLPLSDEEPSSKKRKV
T1 sequence (Q03330 whole entry): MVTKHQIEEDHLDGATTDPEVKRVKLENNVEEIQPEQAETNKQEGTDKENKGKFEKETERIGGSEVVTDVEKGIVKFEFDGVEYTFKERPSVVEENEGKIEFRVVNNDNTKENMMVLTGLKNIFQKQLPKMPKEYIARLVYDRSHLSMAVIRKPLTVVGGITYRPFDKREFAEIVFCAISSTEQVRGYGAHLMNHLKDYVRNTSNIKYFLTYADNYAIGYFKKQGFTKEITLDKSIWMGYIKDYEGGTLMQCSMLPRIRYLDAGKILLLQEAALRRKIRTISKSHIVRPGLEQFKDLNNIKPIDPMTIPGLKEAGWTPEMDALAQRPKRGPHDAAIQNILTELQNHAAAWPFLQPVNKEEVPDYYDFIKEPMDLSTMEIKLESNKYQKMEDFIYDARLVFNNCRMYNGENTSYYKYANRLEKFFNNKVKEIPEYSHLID
T2 sequence (Q92794 497-780 limits assumed): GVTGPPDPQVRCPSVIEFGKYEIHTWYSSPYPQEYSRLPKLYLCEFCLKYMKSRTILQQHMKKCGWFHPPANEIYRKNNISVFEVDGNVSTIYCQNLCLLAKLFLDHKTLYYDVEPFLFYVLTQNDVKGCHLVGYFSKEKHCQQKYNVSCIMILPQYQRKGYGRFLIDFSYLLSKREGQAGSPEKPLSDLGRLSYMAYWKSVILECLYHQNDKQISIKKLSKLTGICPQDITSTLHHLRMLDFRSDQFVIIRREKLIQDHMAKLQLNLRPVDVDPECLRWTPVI
AANAT (arylalkylamine N-acetyltransferase), sequence (Q29495 whole entry): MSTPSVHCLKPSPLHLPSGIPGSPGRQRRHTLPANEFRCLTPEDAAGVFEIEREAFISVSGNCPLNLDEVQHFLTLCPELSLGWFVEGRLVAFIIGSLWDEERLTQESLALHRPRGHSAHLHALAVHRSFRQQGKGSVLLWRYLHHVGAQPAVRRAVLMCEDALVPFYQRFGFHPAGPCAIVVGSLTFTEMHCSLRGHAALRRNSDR

SMILES: CC1=NN(c2ccc(C(=O)O)cc2)C(=O)C1=Cc1ccc(-c2cc(C)c(C)cc2[N+](=O)[O-])o1 [Compound C646, 4-(4,5-dihydro-3-methyl-4-((5-(4,5-dimethyl-2-nitrophenyl)furan-2-yl)methylene)-5-oxopyrazol-1-yl)benzoic acid]
- inhibition at 10 µM [1]: < 10%
- inhibition at 10 µM [2]: < 10%
- inhibition at 10 µM [3]: < 10%
- inhibition at 10 µM [4]: < 10%
- reaction with thiol (adduct formation) [5]: no evidence of reaction
- pIC50 [6]: 4.45
- growth inhibition / cell death [7]: significant growth inhibition and/or tumor cell death
